Publication PMC11061419, “Identification of novel small molecule inhibitors of twin arginine translocation (Tat) pathway and their effect on the control of Campylobacter jejuni in chickens” (Frontiers in Microbiology, 2024)
Converted amounts (≈) assume the structure as drawn.

Tests used:
C. jejuni 81–176 = experiment: Copper sulfate sensitivity dose–response assay in vitro (MIC/MBC); format: cell-based, Campylobacter jejuni; conditions: for MBC / MIC: Campylobacter jejuni, 0.5 mM CuSO4, head displaced; for MBC: read-out: MBC, C. jejuni (Table S5); for MIC: read-out: MIC, C. jejuni (Table S4); for C. jejuni 81–176 in vitro MBC: minimal bactericidal concentration in presence of 0.5 mM CuSO4; for C. jejuni 81–176 in vitro MIC: minimal bacteriostatic concentration in presence of 0.5 mM CuSO4
Method: (§1) In total, 19 SMs were two-fold serially diluted to obtain a final SM concentration ranging from 6.25 to 0.012 μg/mL. C. jejuni 81–176 was then treated with a determined concentration of SM, as described in the copper sensitivity assay. […] The lowest bactericidal SM concentration was considered the MBC (no increase in OD600 over time and no viable cells were recovered on agar plate after challenge) (N = 3 replicates per SM). […] However, these SMs were two-fold serially diluted to obtain a final SM concentration ranging from 5 μg to 0.0625 μg for testing (N = two independent experiments with four technical replicate for each SM).

C. coli ATCC33559 = experiment: as above; format: cell-based; conditions: Campylobacter coli; for MIC: ATCC33559, read-out: MIC, C. coli (Table S4); for MBC: ATCC33559, 0.5 mM CuSO4, read-out: MBC, C. coli (Table S5)
Method: (§2) Campylobacter jejuni 81–176 was the primary model strain used for the selection of the potential Tat-dependent inhibitors by high-throughput screening. C. jejuni 81–176 is resistant to 0.5 and 1 mM CuSO4 (Supplementary Figure S1). C. jejuni 81–176 tatC knockout mutant (C. jejuni ΔtatC) was used to confirm the Tat-dependent inhibitory effect of the selected SM. C. jejuni ΔtatC is susceptible to 0.5 mM and higher of CuSO4 ([Rajashekara et al., 2009]). The specificity of the Tat-dependent inhibitors was also tested on 11 additional Campylobacter strains (C. coli ATCC33559 and 10 other C. jejuni strains isolated from chickens) and 7 commensal/beneficial bacteria (Supplementary Table S1). The […] (Au-13, Au-20, Au-38, Au-39, Au-47, Au-50, Au-24, Au-32, Au-44, and Au-45) were selected based on their single nucleotide polymorphism (SNP)-type and percent of prevalence in chickens ([Merchant-Patel et al., 2008]; [Kumar et al., 2016]). Additional details about the bacterial strains are shown in Supplementary Table S1.
as §1

C. jejuni Au-13 = experiment: as above; format: cell-based; conditions: Campylobacter jejuni; for MIC: AU13, read-out: MIC, Au-13 (Table S4); for MBC: AU13, 0.5 mM CuSO4, read-out: MBC, Au-13 (Table S5)
Method: as §2, §1

C. jejuni Au-20 = experiment: as above; format: cell-based; conditions: Campylobacter jejuni; for MIC: AU20, read-out: MIC, Au-20 (Table S4); for MBC: AU20, 0.5 mM CuSO4, read-out: MBC, Au-20 (Table S5)
Method: as §2, §1

C. jejuni Au-24 = experiment: as above; format: cell-based; conditions: Campylobacter jejuni; for MIC: AU24, read-out: MIC, Au-24 (Table S4); for MBC: AU24, 0.5 mM CuSO4, read-out: MBC, Au-24 (Table S5)
Method: as §2, §1

C. jejuni Au-32 = experiment: as above; format: cell-based; conditions: Campylobacter jejuni; for MIC: AU32, read-out: MIC, Au-32 (Table S4); for MBC: AU32, 0.5 mM CuSO4, read-out: MBC, Au-32 (Table S5)
Method: as §2, §1

C. jejuni Au-38 = experiment: as above; format: cell-based; conditions: Campylobacter jejuni; for MIC: AU38, read-out: MIC, Au-38 (Table S4); for MBC: AU38, 0.5 mM CuSO4, read-out: MBC, Au-38 (Table S5)
Method: as §2, §1

C. jejuni Au-39 = experiment: as above; format: cell-based; conditions: Campylobacter jejuni; for MIC: AU39, read-out: MIC, Au-39 (Table S4); for MBC: AU39, 0.5 mM CuSO4, read-out: MBC, Au-39 (Table S5)
Method: as §2, §1

C. jejuni Au-44 = experiment: as above; format: cell-based; conditions: Campylobacter jejuni; for MIC: AU44, read-out: MIC, Au-44 (Table S4); for MBC: AU44, 0.5 mM CuSO4, read-out: MBC, Au-44 (Table S5)
Method: as §2, §1

C. jejuni Au-45 = experiment: as above; format: cell-based; conditions: Campylobacter jejuni; for MIC: AU45, read-out: MIC, Au-45 (Table S4); for MBC: AU45, 0.5 mM CuSO4, read-out: MBC, Au-45 (Table S5)
Method: as §2, §1

C. jejuni Au-47 = experiment: as above; format: cell-based; conditions: Campylobacter jejuni; for MIC: AU47, read-out: MIC, Au-47 (Table S4); for MBC: AU47, 0.5 mM CuSO4, read-out: MBC, Au-47 (Table S5)
Method: as §2, §1

C. jejuni Au-50 = experiment: as above; format: cell-based; conditions: Campylobacter jejuni; for MIC: AU50, read-out: MIC, Au-50 (Table S4); for MBC: AU50, 0.5 mM CuSO4, read-out: MBC, Au-50 (Table S5)
Method: as §2, §1

[1] = test system: Campylobacter spp. (12 strains); experiment: Activity spectrum against Campylobacter strains at 6.25 μg/mL with 0.5 mM CuSO4; format: cell-based, Campylobacter jejuni, Campylobacter coli; conditions: 6.25 μg/mL SM
[2] = test system: Commensal/beneficial gut bacteria (n = 7); experiment: Activity spectrum against commensal/beneficial gut bacteria at 6.25 μg/mL; format: cell-based; conditions: 6.25 μg/mL SM; for Commensal/beneficial gut bacteria inhibited at 6.25 μg/mL (species): Ef Enterococcus faecalis, Lb Levilactobacillus brevis, LGG Lacticaseibacillus rhamnosus GG
Method: A similar experiment was performed with seven commensal/beneficial gut bacteria to determine species specificity of these SMs. In brief, an overnight suspension was normalized at 0.05 OD600 using the appropriate medium and challenged with 6.25 μg/mL of SM. Details about the strains and their growing conditions are shown in Supplementary Table S1. Medium alone and 1% DMSO were used as controls (N = 3 replicates per SM).

[3] = test system: intracellular C. jejuni 81–176 in Caco-2 cells; experiment: Copper sulfate sensitivity dose–response assay in infected Caco-2 colon epithelial cells; format: cell-based, Campylobacter jejuni; conditions: infected Caco-2 cells, 24 h, 0.5 mM CuSO4
Method: The intracellular reduction in C. jejuni in the presence of a given SM (T1-T8) and 0.5 mM CuSO4 were evaluated using Caco-2 cells, as previously described ([Kumar et al., 2016]; [Deblais et al., 2019]). In brief, cells were infected for 2 h using a multiplicity of infection (MOI) of 100. Infected cells were treated with SM at a final concentration ranging between 5 and 0.315 μg/mL and incubated at 37°C for 24 h in a humidified 5% CO2 incubator. Following incubation, cells were washed once with 1X PBS, lysed with 0.1% Triton-100X, serially 10-fold diluted in 1X PBS, and plated on MH agar plate. Plates were incubated in microaerophilic conditions at 42°C for 24 h, to determine the intracellular survival. Cells not infected and not treated and cells infected and treated with 1% DMSO were used as controls (N = two independent experiments with four technical replicate for each SM).

FDH = conditions: 1 mM of azide; ref Davies, 2017; cited from earlier work

| Compound | MBC (C. jejuni 81–176) [µg/mL] | MIC (C. jejuni 81–176) [µg/mL] | C. jejuni 81–176 in vitro MBC (C. jejuni 81–176) [µg/mL] | C. jejuni 81–176 in vitro MIC (C. jejuni 81–176) [µg/mL] | MIC (C. coli ATCC33559) [µg/mL] | MBC (C. coli ATCC33559) [µg/mL] | MIC (C. jejuni Au-13) [µg/mL] | MBC (C. jejuni Au-13) [µg/mL] | MIC (C. jejuni Au-20) [µg/mL] | MBC (C. jejuni Au-20) [µg/mL] | MIC (C. jejuni Au-24) [µg/mL] | MBC (C. jejuni Au-24) [µg/mL] | MIC (C. jejuni Au-32) [µg/mL] | MBC (C. jejuni Au-32) [µg/mL] | MIC (C. jejuni Au-38) [µg/mL] | MBC (C. jejuni Au-38) [µg/mL] | MIC (C. jejuni Au-39) [µg/mL] | MBC (C. jejuni Au-39) [µg/mL] | MIC (C. jejuni Au-44) [µg/mL] | MBC (C. jejuni Au-44) [µg/mL] | further results |
| --- | --- | --- | --- | --- | --- | --- | --- | --- | --- | --- | --- | --- | --- | --- | --- | --- | --- | --- | --- | --- | --- |
| CN(C)c1ccc(C(=O)Nc2ccc(CN3CCS(=O)(=O)CC3)cc2)cc1 [T3] | > 5 | 0.04 (≈ 0.103 µM) | >5 | 0.04 | 1 (≈ 2.58 µM) | > 5 | 6.25 (≈ 16.1 µM) | > 5 | 6.25 (≈ 16.1 µM) | > 5 | 6.25 (≈ 16.1 µM) | > 5 | 6.25 (≈ 16.1 µM) | > 5 | 6.25 (≈ 16.1 µM) | > 5 | 6.25 (≈ 16.1 µM) | > 5 | 6.25 (≈ 16.1 µM) | > 5 | MIC (C. jejuni Au-45): 6.25 µg/mL (≈ 16.1 µM); MBC (C. jejuni Au-45): > 5 µg/mL; MIC (C. jejuni Au-47): 6.25 µg/mL (≈ 16.1 µM); MBC (C. jejuni Au-47): > 5 µg/mL; MIC (C. jejuni Au-50): 6.25 µg/mL (≈ 16.1 µM); MBC (C. jejuni Au-50): > 5 µg/mL; Growth inhibition at 6.25 μg/mL, Campylobacter spp. (strains inhibited/tested) [1]: 12/12; Growth inhibition at 6.25 μg/mL, Commensal/beneficial gut bacteria (strains inhibited/tested) [2]: 2/7; Commensal/beneficial gut bacteria inhibited at 6.25 μg/mL (species) [2]: LGG and Ef; C. jejuni 81–176 MBC in Caco2 cells [3]: 5 µg/mL |
| CCc1ccnc(NS(=O)(=O)c2ccc(C)c(Cl)c2)c1 [T4] | > 5 | 0.01 (≈ 0.0322 µM) | >5 | 0.01 | 6.25 (≈ 20.1 µM) | > 5 | 0.62 (≈ 1.99 µM) | > 5 | 0.62 (≈ 1.99 µM) | > 5 | 6.25 (≈ 20.1 µM) | > 5 | 6.25 (≈ 20.1 µM) | > 5 | 6.25 (≈ 20.1 µM) | > 5 | 6.25 (≈ 20.1 µM) | > 5 | 6.25 (≈ 20.1 µM) | > 5 | MIC (C. jejuni Au-45): 6.25 µg/mL (≈ 20.1 µM); MBC (C. jejuni Au-45): > 5 µg/mL; MIC (C. jejuni Au-47): 0.62 µg/mL (≈ 1.99 µM); MBC (C. jejuni Au-47): > 5 µg/mL; MIC (C. jejuni Au-50): 0.31 µg/mL (≈ 0.997 µM); MBC (C. jejuni Au-50): > 5 µg/mL; Growth inhibition at 6.25 μg/mL, Campylobacter spp. (strains inhibited/tested) [1]: 12/12; Growth inhibition at 6.25 μg/mL, Commensal/beneficial gut bacteria (strains inhibited/tested) [2]: 1/7; Commensal/beneficial gut bacteria inhibited at 6.25 μg/mL (species) [2]: Ef |
| CCOC(=O)C1CCN(CC(=O)Nc2cccc3cccnc23)CC1 [T5] | 0.04 (≈ 0.117 µM) | 0.01 (≈ 0.0293 µM) | 0.04 | 0.01 | 0.02 (≈ 0.0586 µM) | 0.04 (≈ 0.117 µM) | 0.62 (≈ 1.82 µM) | 1.24 (≈ 3.63 µM) | 2.5 (≈ 7.32 µM) | 5 (≈ 14.6 µM) | 2.5 (≈ 7.32 µM) | 5 (≈ 14.6 µM) | 5 (≈ 14.6 µM) | > 5 | 2.5 (≈ 7.32 µM) | 5 (≈ 14.6 µM) | 5 (≈ 14.6 µM) | > 5 | 2.5 (≈ 7.32 µM) | 5 (≈ 14.6 µM) | MIC (C. jejuni Au-45): 5 µg/mL (≈ 14.6 µM); MBC (C. jejuni Au-45): > 5 µg/mL; MIC (C. jejuni Au-47): 2.5 µg/mL (≈ 7.32 µM); MBC (C. jejuni Au-47): 5 µg/mL (≈ 14.6 µM); MIC (C. jejuni Au-50): 5 µg/mL (≈ 14.6 µM); MBC (C. jejuni Au-50): > 5 µg/mL; Growth inhibition at 6.25 μg/mL, Campylobacter spp. (strains inhibited/tested) [1]: 12/12; Growth inhibition at 6.25 μg/mL, Commensal/beneficial gut bacteria (strains inhibited/tested) [2]: 1/7; Commensal/beneficial gut bacteria inhibited at 6.25 μg/mL (species) [2]: Ef |
| CC(C)n1c(S)nc2c1c(=O)[nH]c(=O)n2C [T6] | 2.5 (≈ 10.4 µM) | 1.25 (≈ 5.2 µM) | 2.5 | 1.25 | 1.25 (≈ 5.2 µM) | 2.5 (≈ 10.4 µM) | 1.25 (≈ 5.2 µM) | 2.5 (≈ 10.4 µM) | 1.25 (≈ 5.2 µM) | 2.5 (≈ 10.4 µM) | 1.25 (≈ 5.2 µM) | 2.5 (≈ 10.4 µM) | 1.25 (≈ 5.2 µM) | 2.5 (≈ 10.4 µM) | 1.25 (≈ 5.2 µM) | 2.5 (≈ 10.4 µM) | 1.25 (≈ 5.2 µM) | 2.5 (≈ 10.4 µM) | 1.25 (≈ 5.2 µM) | 2.5 (≈ 10.4 µM) | MIC (C. jejuni Au-45): 1.25 µg/mL (≈ 5.2 µM); MBC (C. jejuni Au-45): 2.5 µg/mL (≈ 10.4 µM); MIC (C. jejuni Au-47): 1.25 µg/mL (≈ 5.2 µM); MBC (C. jejuni Au-47): 2.5 µg/mL (≈ 10.4 µM); MIC (C. jejuni Au-50): 1.25 µg/mL (≈ 5.2 µM); MBC (C. jejuni Au-50): 2.5 µg/mL (≈ 10.4 µM); Growth inhibition at 6.25 μg/mL, Campylobacter spp. (strains inhibited/tested) [1]: 12/12; Growth inhibition at 6.25 μg/mL, Commensal/beneficial gut bacteria (strains inhibited/tested) [2]: 0/7 |
| [N-]=[N+]=[N-] [azide] | – | – | – | – | – | – | – | – | – | – | – | – | – | – | – | – | – | – | – | – | inhibition of FDH activity (FDH): 30% |
